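GI50 = concentration required for 50% inhibition of growth. TGI denotes the concentration required for complete inhibition of growth.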
Assays:
Experiment in all cases: NCI anticancer screen, dose series, 384-well format
HCT-15 colon = tested on: HCT-15 colon
SK-MEL-2 melanoma = tested on: SK-MEL-2 melanoma
A498 renal = tested on: A498 renal
CAKI-1 renal = tested on: CAKI-1 renal
HCC-2998 colon = tested on: HCC-2998 colon
U251 glioblastoma = tested on: U251 glioblastoma
SW-620 colon = tested on: SW-620 colon
MALME-3M melanoma = tested on: MALME-3M melanoma
HOP-92 NSCLC = tested on: HOP-92 NSCLC
SK-OV-3 ovarian = tested on: SK-OV-3 ovarian
KM12 colon = tested on: KM12 colon
NCI-H522 lung = tested on: NCI-H522 lung
SF-295 CNS = tested on: SF-295 CNS

C[C@H](NC(=O)CCC(F)(F)F)C(=O)N[C@@H]1C(=O)N(CCO)c2ncccc2-c2ccccc21
GI50 (HCT-15 colon): > 100 µM
TGI (HCT-15 colon): > 100 µM
GI50 (SK-MEL-2 melanoma): > 100 µM
TGI (SK-MEL-2 melanoma): > 100 µM
GI50 (A498 renal): > 100 µM
TGI (A498 renal): > 100 µM
GI50 (CAKI-1 renal): > 100 µM
TGI (CAKI-1 renal): > 100 µM
GI50 (HCC-2998 colon): > 100 µM
TGI (HCC-2998 colon): > 100 µM
GI50 (U251 glioblastoma): > 100 µM
TGI (U251 glioblastoma): > 100 µM
GI50 (SW-620 colon): 87.1 µM
TGI (SW-620 colon): > 100 µM
GI50 (MALME-3M melanoma): > 100 µM
TGI (MALME-3M melanoma): > 100 µM
GI50 (HOP-92 NSCLC): > 100 µM
TGI (HOP-92 NSCLC): > 100 µM
GI50 (SK-OV-3 ovarian): > 100 µM
TGI (SK-OV-3 ovarian): > 100 µM
GI50 (KM12 colon): > 100 µM
TGI (KM12 colon): > 100 µM
GI50 (NCI-H522 lung): > 100 µM
TGI (NCI-H522 lung): > 100 µM
GI50 (SF-295 CNS): > 100 µM
TGI (SF-295 CNS): > 100 µM
